Among the data in ChEMBL document CHEMBL5321272 (J Med Chem, 2023) are IC50 and inhibition values, retold here.

Series [1] addresses Receptor-type tyrosine-protein kinase FLT3 (Homo sapiens, UniProt P36888, D835Y).
Description: Inhibition of FLT3 D835Y mutant (unknown origin) using peptide substrate TK-S and ATP as substrate incubated for 1 hr by HTRF assay
In series [2] the target is T1, Serine/threonine-protein kinase Chk1 (Homo sapiens, UniProt O14757).
T1 sequence (O14757 whole entry): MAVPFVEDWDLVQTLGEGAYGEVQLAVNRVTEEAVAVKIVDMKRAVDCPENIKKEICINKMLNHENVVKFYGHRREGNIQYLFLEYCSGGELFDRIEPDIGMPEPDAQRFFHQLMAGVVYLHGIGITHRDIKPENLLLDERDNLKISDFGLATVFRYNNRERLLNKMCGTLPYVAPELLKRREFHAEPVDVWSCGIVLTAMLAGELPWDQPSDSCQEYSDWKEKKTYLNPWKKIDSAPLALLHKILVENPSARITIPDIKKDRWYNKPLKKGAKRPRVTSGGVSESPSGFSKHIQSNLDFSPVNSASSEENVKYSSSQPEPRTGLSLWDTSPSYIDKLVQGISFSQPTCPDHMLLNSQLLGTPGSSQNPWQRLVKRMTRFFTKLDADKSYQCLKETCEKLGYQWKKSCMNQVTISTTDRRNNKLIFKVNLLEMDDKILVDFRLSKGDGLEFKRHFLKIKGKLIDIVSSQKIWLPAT
Description: Inhibition of CHK1 (unknown origin) using peptide substrate S1 and ATP as substrate incubated for 1 hr by HTRF assay

The next series relates to MV4-11. The experiment in a line: cells. Conditions: Homo sapiens, MV4-11, 72 h.
For the next series, the target named is hERG (KCNH2) (Homo sapiens, UniProt Q12809). The experiment in a line: Inhibition of hERG expressed in HEK293 cells at 20 uM by whole cell patch clamp analysis. Type of series: toxicity, cell-based. The note with it: HEK293 cells expressing hERG.
Chain of hERG (KCNH2) (Q12809 whole entry): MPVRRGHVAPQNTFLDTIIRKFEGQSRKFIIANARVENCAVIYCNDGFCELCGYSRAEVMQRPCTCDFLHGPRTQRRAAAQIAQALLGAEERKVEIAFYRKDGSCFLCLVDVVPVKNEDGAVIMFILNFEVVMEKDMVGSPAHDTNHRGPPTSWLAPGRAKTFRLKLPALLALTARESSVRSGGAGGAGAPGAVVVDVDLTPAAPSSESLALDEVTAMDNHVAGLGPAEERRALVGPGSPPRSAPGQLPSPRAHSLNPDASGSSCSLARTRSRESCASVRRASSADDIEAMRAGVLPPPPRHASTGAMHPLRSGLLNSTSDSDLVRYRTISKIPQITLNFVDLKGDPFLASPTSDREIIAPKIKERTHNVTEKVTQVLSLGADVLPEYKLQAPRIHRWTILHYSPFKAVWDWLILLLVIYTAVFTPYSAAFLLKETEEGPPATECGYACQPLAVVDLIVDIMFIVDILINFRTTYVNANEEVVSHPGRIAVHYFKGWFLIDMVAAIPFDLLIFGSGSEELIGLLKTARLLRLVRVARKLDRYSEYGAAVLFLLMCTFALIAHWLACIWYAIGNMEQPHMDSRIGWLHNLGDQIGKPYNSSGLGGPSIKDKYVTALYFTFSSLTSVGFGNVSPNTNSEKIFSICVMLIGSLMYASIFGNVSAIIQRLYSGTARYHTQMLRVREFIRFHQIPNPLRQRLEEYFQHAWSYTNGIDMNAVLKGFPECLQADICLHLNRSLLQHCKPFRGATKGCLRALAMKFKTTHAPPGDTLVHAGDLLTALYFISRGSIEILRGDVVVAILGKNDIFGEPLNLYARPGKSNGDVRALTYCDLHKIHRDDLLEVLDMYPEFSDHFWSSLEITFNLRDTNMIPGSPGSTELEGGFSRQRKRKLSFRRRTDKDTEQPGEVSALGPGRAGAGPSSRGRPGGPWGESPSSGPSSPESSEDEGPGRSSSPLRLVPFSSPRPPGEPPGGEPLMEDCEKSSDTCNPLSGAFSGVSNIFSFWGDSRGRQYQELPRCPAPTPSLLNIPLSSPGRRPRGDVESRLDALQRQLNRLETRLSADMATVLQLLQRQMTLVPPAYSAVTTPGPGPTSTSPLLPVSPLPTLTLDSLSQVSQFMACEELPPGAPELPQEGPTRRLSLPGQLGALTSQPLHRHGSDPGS

Description for MV4-11: Antiproliferative activity against human MV4-11 cells assessed as reduction in cell viability incubated for 72 hrs by CellTiter 96 Aqueous One Solution Cell Proliferation Assay

`CC(=O)NCCCNc1nc(Nc2ccc3c(c2)CCN(C(=O)CC(C)(C)O)C3)ncc1C(F)(F)F`: the IC50 in series [1] turned out to be 16.1 nM; in series [2], 765 nM; in the series on MV4-11, 44.5 nM.
The molecule `CC(C)(O)CC(=O)N1CCc2cc(Nc3ncc(C(F)(F)F)c(NCCCN)n3)ccc2C1` showed an inhibition at 20 µM against hERG (KCNH2) of 11.2%. The IC50 in series [1] was determined as 3.79 nM; in series [2], 34.5 nM; in the series with MV4-11, 2.38 nM.
As to `N#Cc1cnc(Nc2cc(NC[C@H]3CNCCO3)c(C(F)(F)F)cn2)cn1` [SRA-737], 245 nM corresponded to half-maximal inhibition in the series on MV4-11 (IC50).
Turning to `CC(C)(O)Cn1ncc2cc(Nc3ncc(C(F)(F)F)c(N[C@H]4CC[C@@H](N)CC4)n3)ccc2c1=O`, 20 µM produced 48.1% inhibition against hERG (KCNH2). Besides, the IC50 in series [1] was 2.69 nM; in series [2], 66.9 nM; with MV4-11, 1.1 nM.
At hERG (KCNH2), `CC(C)(O)Cn1cnc2cc(Nc3ncc(C(F)(F)F)c(N[C@H]4CC[C@@H](N)CC4)n3)ccc2c1=O` gave an inhibition at 20 µM of 6.82%. Also, the IC50 amounted to 4.56 nM in series [1], 206 nM in series [2] and 1.59 nM in the series on MV4-11.
As to `CNCCCNc1nc(Nc2ccc3c(c2)CCN(C(=O)CC(C)(C)O)C3)ncc1C(F)(F)F`, the IC50 came out at 27.3 nM in series [1], 61.6 nM in series [2] and 14.2 nM in the series with MV4-11.
For `CC(C)(O)Cn1ccc2cc(Nc3ncc(C(F)(F)F)c(NC4CC5(CNC5)C4)n3)ccc2c1=O` the same measures were 26.6 nM, 80.1 nM and 66.2 nM.
For `CC(C)(N)CNc1nc(Nc2ccc3c(c2)CCN(C(=O)CC(C)(C)O)C3)ncc1C(F)(F)F` the same measures were 166 nM, 2000 nM and 39.7 nM.
As to `CC(C)(O)CC(=O)N1CCc2cc(Nc3ncc(C(F)(F)F)c(NC4CCNCC4)n3)ccc2C1`, the IC50 came out at 40.9 nM in series [1], 227 nM in series [2] and 22.4 nM with MV4-11.
Regarding `CC(C)(O)CC(=O)N1CCc2cc(Nc3ncc(C(F)(F)F)c(NC[C@H]4CCCNC4)n3)ccc2C1`, the results for the IC50 (in series [1]; in series [2]; in the series on MV4-11) were 12 nM, 86.5 nM and 2.71 nM, respectively.
As to `CCn1ccc2cc(Nc3ncc(C(F)(F)F)c(N[C@H]4CC[C@@H](N)CC4)n3)ccc2c1=O`, the IC50 in series [1] was found to be 1.59 nM; in series [2], 26.7 nM; in the series with MV4-11 it was 0.99 nM.
Regarding `CC(=O)N1CCc2ccc(Nc3ncc(C(F)(F)F)c(N[C@H]4CC[C@@H](N)CC4)n3)cc21`, the IC50 came out at 9.84 nM in series [1], 58 nM in series [2] and 36 nM in the series on MV4-11.
In the case of `CC(C)(O)CC(=O)N1CCc2cc(Nc3ncc(C(F)(F)F)c(N[C@H]4CC[C@@H](NS(C)(=O)=O)CC4)n3)ccc2C1`, the IC50 turned out to be 3.8 nM in series [1], 827 nM in series [2] and 6.21 nM with MV4-11.
For `CC(=O)N1CCc2nc(Nc3ncc(C(F)(F)F)c(N[C@H]4CC[C@@H](N)CC4)n3)ccc2C1` the same measures were 61.4 nM, 301 nM and 1.45 nM.
`CC(C)(O)CC(=O)N1CCc2cc(Nc3ncc(C(F)(F)F)c(N[C@@H]4CCCNC4)n3)ccc2C1`: 20 µM produced 35% inhibition against hERG (KCNH2). For the same molecule, the IC50 in series [1] was determined as 4.03 nM; in series [2], 35.2 nM; in the series on MV4-11, 2.26 nM.
Consider `Cn1ccc2cc(Nc3ncc(C(F)(F)F)c(N[C@H]4CC[C@@H](N)CC4)n3)ccc2c1=O`, for which the inhibition at 20 µM on hERG (KCNH2) was 75.9%. For the same molecule, the IC50 in series [2] amounted to 26.3 nM.
On to `Cn1cnc2cc(Nc3ncc(C(F)(F)F)c(N[C@H]4CC[C@@H](N)CC4)n3)ccc2c1=O`, for which 20 µM produced 48.3% inhibition at hERG (KCNH2). In addition, the IC50 in series [1] stood at 8.8 nM; in series [2], 223 nM; in the series with MV4-11, 1.77 nM.
In the case of `CC(C)(O)Cn1ccc2cc(Nc3ncc(C(F)(F)F)c(N[C@H]4C[C@H]5CC[C@@H](C4)N5)n3)ccc2c1=O`, the half-maximal inhibitory concentration (IC50) in series [1] was 488 nM; in series [2] it was 2020 nM; in the series with MV4-11, more than 5000 nM.
For `CC(C)(O)CC(=O)N1CCc2cc(Nc3ncc(C(F)(F)F)c(NC[C@@H]4CCCNC4)n3)ccc2C1` the same measures were 24.1 nM, 336 nM and 8.26 nM.
Turning to `CC(C)(N)CCNc1nc(Nc2ccc3c(c2)CCN(C(=O)CC(C)(C)O)C3)ncc1C(F)(F)F`, on hERG (KCNH2), the inhibition at 20 µM was 31.9%. Besides, the IC50 in series [1] came out at 3.32 nM; in series [2], 219 nM; in the series with MV4-11, 0.62 nM.
Regarding `CC(C)(O)CC(=O)N1CCc2nc(Nc3ncc(C(F)(F)F)c(N[C@H]4CC[C@@H](N)CC4)n3)ccc2C1`, the IC50 stood at 77.1 nM in series [1], 362 nM in series [2] and 21.4 nM in the series with MV4-11.
Turning to `CC(C)(O)CC(=O)N1CCc2cc(Nc3ncc(C(F)(F)F)c(NCCCCN)n3)ccc2C1`, the IC50 amounted to 1.5 nM in series [1], 41.1 nM in series [2] and 0.61 nM in the series on MV4-11.
For `CC(C)(O)Cn1ccc2cc(Nc3ncc(C(F)(F)F)c(N[C@H]4CC[C@@H](N)CC4)n3)ccc2c1=O`, at hERG (KCNH2), the inhibition at 20 µM is 22.1%. Also, the IC50 in series [1] was 3.91 nM; in series [2] it was 124 nM; in the series with MV4-11, 0.62 nM.
As for `CC(C)(O)CC(=O)N1CCc2cc(Nc3ncc(C(F)(F)F)c(NCCCCCN)n3)ccc2C1`, the IC50 in series [1] stood at 3.19 nM; in series [2], 159 nM; with MV4-11, 12.7 nM.
Regarding `CC(C)(O)CC(=O)N1CCc2cc(Nc3ncc(C(F)(F)F)c(N[C@H]4CC[C@H](N)CC4)n3)ccc2C1`, the IC50 in series [1] stood at 12 nM; in series [2], 96 nM; with MV4-11, 5.89 nM.
On to `CC(C)(O)CC(=O)N1CCc2cc(Nc3ncc(C(F)(F)F)c(N[C@@H]4CCCC[C@@H]4N)n3)ccc2C1`, for which the IC50 was 224 nM in series [1] and 1970 nM in series [2].
For the molecule `CC(C)(O)CC(=O)N1CCc2cc(Nc3ncc(C(F)(F)F)c(NCCN)n3)ccc2C1`, the IC50 in series [1] came out at 38.2 nM; in series [2] it was 135 nM.
On to `CC(C)(O)CC(=O)N1CCc2cc(Nc3ncc(C(F)(F)F)c(N[C@H]4CCCC[C@H]4N)n3)ccc2C1`, for which the IC50 in series [1] was 1450 nM; in series [2] it was more than 10000 nM.
For `CC(C)(O)CC(=O)N1CCc2cc(Nc3ncc(C(F)(F)F)c(NCC4CCNCC4)n3)ccc2C1`, the values for the IC50 (in series [1]; in series [2]; in the series with MV4-11) were 10.4 nM, 87.3 nM and 6.79 nM, respectively.
`CC(=O)N[C@H]1CC[C@@H](Nc2nc(Nc3ccc4c(c3)CCN(C(=O)CC(C)(C)O)C4)ncc2C(F)(F)F)CC1`: the results for the concentration for half-maximal inhibition (IC50) (in series [1]; in series [2]; in the series with MV4-11) were 18.9 nM, 1090 nM and 20.7 nM, respectively.
`CC(C)(O)CC(=O)N1CCc2cc(Nc3ncc(C(F)(F)F)c(NCCCNS(C)(=O)=O)n3)ccc2C1`: the IC50 in series [1] is 18.1 nM; in series [2], 1950 nM.
For `CC(C)(O)CC(=O)N1CCc2cc(Nc3ncc(C(F)(F)F)c(NCC(C)(C)CN)n3)ccc2C1`, the IC50 amounted to 91.4 nM in series [1], 1060 nM in series [2] and 27.9 nM in the series with MV4-11.
In the case of `CC(C)(O)C(=O)N1CCc2nc(Nc3ncc(C(F)(F)F)c(N[C@H]4CC[C@@H](N)CC4)n3)ccc2C1`, the IC50 worked out at 55.4 nM in series [1], 250 nM in series [2] and 9.51 nM in the series on MV4-11.
Turning to `CC(C)(O)CC(=O)N1CCc2cc(Nc3ncc(C(F)(F)F)c(N[C@H]4CCCNC4)n3)ccc2C1`, the results for the IC50 in series [1] and in series [2] were 311 nM and 952 nM, respectively.
